Results reported in US20260263468A1 (Fundación Instituto de Investigación Sanitaria Fundación …, priority 2023, published 2026).

What was measured:
[1] = Body composition by DXA scan; format: in vivo, C57BL/6J mice; details: healthy mice, dipy treatment alone, 2 weeks
Method: Previously to arthritis induction and sacrifice day, all mice underwent DXA scan. For DXA analysis, a Lunar PIXImus densitometer (software version 2.10) was calibrated using a hydroxyapatite phantom provided by the manufacturer (Lunar Corp, Madison, WI). Subsequently, mice were anesthetized and whole-body scans were conducted. Data analysis consisted of whole-body lean mass, fat mass, bone mineral density and bone mineral content. […] Previously to arthritis induction and sacrifice day, all mice underwent DXA scan. For DXA analysis, a Lunar PIXImus densitometer (software version 2.10) was calibrated using a hydroxyapatite phantom provided by the manufacturer (Lunar Corp, Madison, WI). Subsequently, mice were anesthetized and whole-body scans were conducted. Data analysis consisted of whole-body lean mass, fat mass, bone mineral density and bone mineral content.

C2C12 [2] = assay: AMPK phosphorylation assay kit (short time points); format: cell-based; details: myoblast, 1 μM, 10 min after switching to 2% HS; control 1.97±0.17
Method: Assay was performed with the AMPK phosphorilation assay kit (Abnova Corporation, Jhouzih St, Taiwan) as manufactor instructions and pAMPK was measured at λex/em 530/585 nm and 360/450 nm for total protein with Tecan Infinite.

[3] = tested on: K/B×N serum transfer-induced arthritis; assay: K/B×N serum transfer-induced arthritis, acute model: joint thickness, clinical score, body weight; format: in vivo, C57BL/6J mice
Method: In their quest for a model of inflammatory arthritis which could display associated sarcopenia the inventors employed serum transfer from K/B×N progeny in 12-wk-old C57BL/6J mice. Arthritic K/B×N mice were generated by crossing KRN mice with NOD/Lt mice. Serum was collected and pulled. Age-matched, male recipient, 12-wk-old C57BL/6J mice were purchased from Charles River Laboratories (Barcelona, España). C57BL/6J mice were injected with pooled serum (100 μl, I.P.) from K/B×N mice on day 0 and 2.
(§1) Development of arthritis was assessed daily, and the severity of arthritis was assessed in each paw on a 4-point scale defined as follows: 0=normal appearance, 1=localized edema/erythema over one surface of the paw, 2=edema/erythema involving more than one surface of the paw, and 3-4=marked edema/erythema involving the whole paw. Scores of all 4 paws were added for a composite score. All motor activity tests were performed prior to serum inoculation and at the highest point of inflammation. Mice were euthanized on day 14. Gastronemius and quadriceps were collected for protein and RNA extraction. Tibialis and soleus were included for freeze histology following the indications of H. Meng (1). Bones were prepared for micro-computed tomography (microCT) and histology. White adipose tissue (WAT) and brown adipose tissue (BAT) were collected for histology and protein extraction. Blood was drawn and serum was isolated for measurement of inflammatory cytokines and C-reactive protein (CPR).
Animals were sacrificed 30 days after serum transfer.
as §1, with “Mice were weighted weekly. Development” for “Development”, “16 for acute inflammation model or 30 days for Inflammation resolved model. A representative photo of body structure and muscle of pawn were taken on this day.” for “14.”, “was” for “and quadriceps were”, “(see references in ref. 44).” for “(1).”, “histology.” for “histology. White adipose tissue (WAT) and brown adipose tissue (BAT) were collected for histology and protein extraction.”

[4] = tested on: K/B×N serum transfer-induced arthritis; assay: Western blot of gastronemius, acute model
[5] = tested on: K/B×N serum transfer-induced arthritis; assay: Cytokine and chemokine array in gastronemius muscle; format: in vivo, C57BL/6J mice; details: acute model, RA + Dipy
Method: The cytokines concentration was measured by fluorescence using GenePix 4000B following manufacture protocol for serum and frozen samples. Serum samples were used at 2-fold sample dilution. Frozen gastronemius were crushed using a mortar and a pestle cooled with liquid nitrogen. Next, gastronemius were homogenized in a sonicator and the protein isolated in the supernatant quantified with BCA assay. We used 100 μL (1 mg/ml) of total gastronemius protein for cytokine and chemokine array assay.

C2C12 [6] = assay: Western blot of adenosine receptors, P2X7 and Panx-1 during differentiation; format: cell-based; details: 1 μM
Method: Cells were lysed with RIPA buffer and protein concentration was determined by BCA. […] Variations in intensity were expressed as % of basal (day 0) and expressed as mean±SEM. All results were calculated as a percentage of non-differentiated controls to minimize the intrinsic variation among different experiments.
The expression of adenosine receptors, P2X7 receptor and Panx-1 channel was analyzed during myoblast differentiation.

[7] = healthy mice, dipyridamole alone, Sham 100±1%

OCCN(CCO)c1nc(N2CCCCC2)c2nc(N(CCO)CCO)nc(N3CCCCC3)c2n1 [dipyridamole, 2,6-bis(Diethanolamino)-4,8-dipiperidinopyrimido[5,4-d]pyrimidine]
Body composition (DXA) [1]: did not produced alterations in body composition | AMPK activation (C2C12 [2]): 2.89±0.29 | Weight loss ([3]; arthritic mice, 2 weeks of treatment, arthritic 14.2±4.1%): 6.2±3.4% | Paw (joint) thickness ([3]; arthritic mice, daily dipyridamole, 2 wk, arthritic 1.72±0.09): 0.5±0.01 mm | Clinical score (inflammation) ([3]; arthritic mice, daily dipyridamole, 2 wk, arthritic 14±1): 5±3 | Hind paw musculature (macroscopic) ([3]; healthy mice, dipy alone, two weeks): no significant changes | Percentage of weight ([3]; healthy mice, dipyridamole 25 mg/kg/day alone, 2 weeks): did not change | CK protein expression ([4]; RA+Dipy, RA 77.98±10.81%, Sham 100±0%): 393.4±55.09% | A2B receptor expression in gastronemius ([4]; arthritic mice + dipyridamole, arthritic 35±9%, Sham 100±1%): 160±14% | AMPK phosphorylation in gastronemius ([4]; arthritic mice + dipyridamole, arthritic 53±7%, sham 100±1%): 152±5% | MHC protein expression in gastronemius ([4]; arthritic mice + dipyridamole, arthritic 60±7%, sham 100±1%): 184±6% | A2A receptor expression in gastronemius ([4]; arthritic mice + dipyridamole, arthritic 71±3%, Sham 100±1%): 123±6% | Pax7 protein expression in gastronemius ([4]; arthritic mice + dipyridamole, arthritic 151±13%, sham 100±1%): 274±11% | p21 protein expression ([4]; arthritic mice + dipyridamole, arthritic 221±38%): 64±15% | p16 protein expression ([4]; arthritic mice + dipyridamole, arthritic 392±25%): 139±32% | Pax7 and MHC protein expression in gastronemius ([4]; healthy mice, dipy alone vs sham): non-significant increase | A2A receptor expression in gastronemius [4, 7]: 118.8±11.30% | A2B receptor expression in gastronemius [4, 7]: 167.6±10.63% | pAMPK expression in gastronemius [4, 7]: 194.2±5.2% | Muscle IL-1α [5]: 3.5 ± 0.2 pg/mL | Muscle IL-1β [5]: 13.9 ± 1.9 $$ pg/ml | Muscle IL-2 [5]: 8 ± 2.8 pg/mL | Muscle IL-3 [5]: 1 ± 0.2 pg/mL | Muscle IL-4 [5]: 23 ± 1.9 pg/mL | Muscle IL-5 [5]: 5.5 ± 0.8 pg/mL | Muscle IL-6 [5]: 6.9 ± 0.6 **/$ pg/ml | Muscle IL-9 [5]: 13.1 ± 2.5 pg/mL | Muscle IL-10 [5]: 32.5 ± 2.3 **/ $ pg/ml | Muscle IL-13 [5]: 11.3 ± 0.9 pg/mL | Muscle IL-17 [5]: 7 ± 1.3 pg/mL | Muscle INFγ [5]: 48.7 ± 4.8 */$ pg/ml | Muscle KC (CXCL1) [5]: 1.2 ± 0.7 pg/mL | Muscle M-CSF [5]: 11.8 ± 1.6 pg/mL | Muscle RANTES [5]: 4.7 ± 0.5 pg/mL | Muscle TNF-α [5]: 24.6 ± 1.2 pg/mL | Muscle VEGF [5]: 122 ± 12.9 pg/mL | Muscle MCP-1 ([5]; listed as Dipy): 43.8 ± 9.9 */$ pg/ml | Muscle MCP-1 ([5]; listed as dipy): 43.8 ± 9.9 pg/mL | A3 receptor protein expression (C2C12 [6]; compared to control): did not change | P2X7 protein expression (% of basal) (C2C12 [6]; day 4): 202±46%
